We go through 25 molecules from ChEMBL document CHEMBL4819069, “Discovery of multifunctional anti-Alzheimer's agents with a unique mechanism of action including inhibition of the enzyme butyrylcholinesterase and γ-aminobutyric acid transporters” (Eur J Med Chem, 2021).

Assay [1] deals with Amyloid-beta precursor protein (Homo sapiens) (UniProt P05067). The assay can be described thus: Inhibition of HFIP-pretreated amyloid beta (1 to 42) (unknown origin) aggregation at 10 uM after 36 to 48 hrs by thioflavin-T fluorescence assay relative to control. Conditions: time 36-48 hrs.
Assay [2] has as its target Acetylcholinesterase (Electrophorus electricus) (UniProt O42275). The assay can be described thus: Inhibition of electric eel AChE at 10 uM using acetylthiocholine as substrate preincubated for 5 mins followed by substrate addition and measured after 5 mins by Ellman's method relative to control. Conditions: time 10.0 min. A general note: In Ellman's method for cholinesterases, released thiocholine reacts with DTNB.

The target of assay [3] is T1, Cholinesterase (Homo sapiens, UniProt P06276). The assay can be described thus: Inhibition of human BuchE at 1 uM using butyrylthiocholine as substrate preincubated for 5 mins followed by substrate addition and measured after 5 mins by Ellman's method relative to control. Conditions: time 10.0 min.
In assay [4] the target is T2, Beta-secretase 1 (Homo sapiens, UniProt P56817). The note with it: dose 50.0 µM, time 60.0 min.
Assay [5] addresses Cholinesterase (Equus caballus, UniProt P81908).
Description: Inhibition of equine serum BuChE using butyrylthiocholine as substrate preincubated for 5 mins followed by substrate addition and measured after 5 mins by Ellman's method
Assay [6] addresses T1, Cholinesterase.
Description: Inhibition of human BuchE using butyrylthiocholine as substrate preincubated for 5 mins followed by substrate addition and measured after 5 mins by Ellman's method
Assay [7] addresses T2, Beta-secretase 1.
Assay [8] concerns the target Sodium- and chloride-dependent GABA transporter 1 (Mus musculus) (UniProt P31648). The assay can be described thus: Inhibition of mouse GAT1 expressed in HEK293 cell line assessed as reduction in [3H]GABA uptake at 100 uM incubated for 10 mins relative to control. The class given is cell-based.
The target in assay [9] is T3, GABA transporter 4 (Mus musculus) (UniProt P31650).
T3 sequence (whole entry): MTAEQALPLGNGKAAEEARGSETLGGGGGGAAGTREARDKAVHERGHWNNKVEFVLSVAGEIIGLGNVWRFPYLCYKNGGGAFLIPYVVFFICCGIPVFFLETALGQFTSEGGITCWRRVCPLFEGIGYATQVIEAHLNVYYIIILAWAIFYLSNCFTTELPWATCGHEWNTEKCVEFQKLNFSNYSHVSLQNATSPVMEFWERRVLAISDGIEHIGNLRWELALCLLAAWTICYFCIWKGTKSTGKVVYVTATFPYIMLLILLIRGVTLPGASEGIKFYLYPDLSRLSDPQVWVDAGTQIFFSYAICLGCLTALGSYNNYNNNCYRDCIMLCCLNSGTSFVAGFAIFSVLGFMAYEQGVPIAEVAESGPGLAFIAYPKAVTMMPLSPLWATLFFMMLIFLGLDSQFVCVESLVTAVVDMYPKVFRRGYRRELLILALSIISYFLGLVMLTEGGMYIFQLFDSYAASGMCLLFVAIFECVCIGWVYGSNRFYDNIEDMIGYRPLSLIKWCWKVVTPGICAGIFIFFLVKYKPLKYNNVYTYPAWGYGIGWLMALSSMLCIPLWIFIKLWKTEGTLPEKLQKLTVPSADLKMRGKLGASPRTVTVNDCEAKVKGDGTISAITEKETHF
The experiment in a line: Inhibition of mouse GAT3 expressed in HEK293 cell line assessed as reduction in [3H]GABA uptake at 100 uM incubated for 10 mins relative to control. The class given is cell-based.

The target in the next assay is T4, GABA transporter 4 (Mus musculus, UniProt P31650).
T4 sequence (P31650 whole entry): T3 sequence (whole entry)
The assay can be described thus: Inhibition of mouse GAT4 expressed in HEK293 cell line assessed as reduction in [3H]GABA uptake incubated for 10 mins. The class given is cell-based.

Assay [10] has as its target Sodium- and chloride-dependent GABA transporter 1 (Mus musculus) (UniProt P31648). The assay can be described thus: Inhibition of NO711 binding to mouse GAT1 expressed in HEK cell membranes at 100 uM incubated for 40 mins in presence of NO711 by LC-ESI-MS/MS analysis relative to control. Conditions: Membrane.
The target of assay [11] is Sodium- and chloride-dependent GABA transporter 1 (Mus musculus, UniProt P31648). The experiment in a line: Inhibition of mouse GAT1 expressed in HEK293 cell line assessed as reduction in [3H]GABA uptake incubated for 10 mins. The class given is cell-based.

Chain of Amyloid-beta precursor protein (Homo sapiens) (P05067 whole entry): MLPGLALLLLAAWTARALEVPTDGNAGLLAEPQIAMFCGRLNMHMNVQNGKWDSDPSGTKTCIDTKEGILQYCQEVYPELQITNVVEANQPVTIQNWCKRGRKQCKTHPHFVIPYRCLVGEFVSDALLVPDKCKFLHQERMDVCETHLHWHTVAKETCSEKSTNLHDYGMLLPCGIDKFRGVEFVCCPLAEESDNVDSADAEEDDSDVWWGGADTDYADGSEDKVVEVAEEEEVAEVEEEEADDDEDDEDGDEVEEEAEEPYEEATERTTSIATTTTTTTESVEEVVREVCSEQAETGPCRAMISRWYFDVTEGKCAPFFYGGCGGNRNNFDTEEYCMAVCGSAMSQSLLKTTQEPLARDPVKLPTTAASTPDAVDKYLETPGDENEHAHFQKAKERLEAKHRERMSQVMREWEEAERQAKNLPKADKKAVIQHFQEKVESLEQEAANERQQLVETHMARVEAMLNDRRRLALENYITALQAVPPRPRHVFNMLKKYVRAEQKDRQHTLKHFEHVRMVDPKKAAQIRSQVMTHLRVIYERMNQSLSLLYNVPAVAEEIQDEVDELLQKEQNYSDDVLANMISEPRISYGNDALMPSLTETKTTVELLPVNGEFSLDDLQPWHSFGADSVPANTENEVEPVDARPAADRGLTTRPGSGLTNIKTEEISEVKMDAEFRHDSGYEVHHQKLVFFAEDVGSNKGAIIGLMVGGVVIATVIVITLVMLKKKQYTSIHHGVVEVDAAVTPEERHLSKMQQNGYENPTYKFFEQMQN
Chain of Cholinesterase (Equus caballus, UniProt P81908) (P81908 whole entry): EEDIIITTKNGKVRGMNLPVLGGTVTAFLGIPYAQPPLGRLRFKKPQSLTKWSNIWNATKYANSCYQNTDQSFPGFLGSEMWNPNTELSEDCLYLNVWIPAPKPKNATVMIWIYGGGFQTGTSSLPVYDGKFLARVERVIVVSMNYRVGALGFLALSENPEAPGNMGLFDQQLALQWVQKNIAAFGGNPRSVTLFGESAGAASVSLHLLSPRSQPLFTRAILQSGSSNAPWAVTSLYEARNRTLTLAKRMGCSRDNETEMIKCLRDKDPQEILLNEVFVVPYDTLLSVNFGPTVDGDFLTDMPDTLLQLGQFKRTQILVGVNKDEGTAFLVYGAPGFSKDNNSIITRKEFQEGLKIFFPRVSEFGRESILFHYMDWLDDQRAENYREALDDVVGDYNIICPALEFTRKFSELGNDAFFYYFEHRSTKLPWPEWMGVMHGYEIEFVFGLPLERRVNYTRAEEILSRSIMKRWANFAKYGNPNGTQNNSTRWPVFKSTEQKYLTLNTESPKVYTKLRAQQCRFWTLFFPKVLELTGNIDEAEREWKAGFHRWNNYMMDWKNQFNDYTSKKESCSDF
Chain of Acetylcholinesterase (Electrophorus electricus) (O42275 24-633 limits assumed): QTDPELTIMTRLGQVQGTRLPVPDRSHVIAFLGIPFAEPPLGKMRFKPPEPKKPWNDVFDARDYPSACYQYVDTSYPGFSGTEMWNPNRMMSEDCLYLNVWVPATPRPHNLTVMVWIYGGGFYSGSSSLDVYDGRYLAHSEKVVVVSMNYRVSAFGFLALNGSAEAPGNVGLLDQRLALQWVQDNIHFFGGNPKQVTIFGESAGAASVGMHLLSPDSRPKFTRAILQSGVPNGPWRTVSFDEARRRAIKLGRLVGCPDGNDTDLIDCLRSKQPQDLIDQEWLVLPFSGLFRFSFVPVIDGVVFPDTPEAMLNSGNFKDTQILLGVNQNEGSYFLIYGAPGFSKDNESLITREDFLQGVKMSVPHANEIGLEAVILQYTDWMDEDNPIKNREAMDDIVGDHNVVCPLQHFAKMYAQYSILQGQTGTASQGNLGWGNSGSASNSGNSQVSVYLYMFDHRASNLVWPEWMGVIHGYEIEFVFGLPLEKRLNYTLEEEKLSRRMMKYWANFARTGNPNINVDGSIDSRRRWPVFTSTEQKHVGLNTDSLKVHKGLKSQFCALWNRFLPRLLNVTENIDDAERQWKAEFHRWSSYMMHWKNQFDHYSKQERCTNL
T2 sequence (P56817 whole entry): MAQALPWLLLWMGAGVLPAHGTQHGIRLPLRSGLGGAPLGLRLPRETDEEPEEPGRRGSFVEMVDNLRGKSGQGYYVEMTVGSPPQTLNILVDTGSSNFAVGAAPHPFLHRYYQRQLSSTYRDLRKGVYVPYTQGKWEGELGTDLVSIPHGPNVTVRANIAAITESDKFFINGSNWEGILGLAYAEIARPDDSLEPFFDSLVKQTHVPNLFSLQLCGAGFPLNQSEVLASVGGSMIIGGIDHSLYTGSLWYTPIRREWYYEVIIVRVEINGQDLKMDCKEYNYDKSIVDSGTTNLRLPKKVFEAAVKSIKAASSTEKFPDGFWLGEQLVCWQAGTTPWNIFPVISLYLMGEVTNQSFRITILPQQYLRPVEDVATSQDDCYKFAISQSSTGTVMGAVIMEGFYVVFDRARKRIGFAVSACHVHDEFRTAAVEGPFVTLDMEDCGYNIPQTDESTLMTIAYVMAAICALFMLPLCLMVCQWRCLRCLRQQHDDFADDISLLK
T1 sequence (P06276 whole entry): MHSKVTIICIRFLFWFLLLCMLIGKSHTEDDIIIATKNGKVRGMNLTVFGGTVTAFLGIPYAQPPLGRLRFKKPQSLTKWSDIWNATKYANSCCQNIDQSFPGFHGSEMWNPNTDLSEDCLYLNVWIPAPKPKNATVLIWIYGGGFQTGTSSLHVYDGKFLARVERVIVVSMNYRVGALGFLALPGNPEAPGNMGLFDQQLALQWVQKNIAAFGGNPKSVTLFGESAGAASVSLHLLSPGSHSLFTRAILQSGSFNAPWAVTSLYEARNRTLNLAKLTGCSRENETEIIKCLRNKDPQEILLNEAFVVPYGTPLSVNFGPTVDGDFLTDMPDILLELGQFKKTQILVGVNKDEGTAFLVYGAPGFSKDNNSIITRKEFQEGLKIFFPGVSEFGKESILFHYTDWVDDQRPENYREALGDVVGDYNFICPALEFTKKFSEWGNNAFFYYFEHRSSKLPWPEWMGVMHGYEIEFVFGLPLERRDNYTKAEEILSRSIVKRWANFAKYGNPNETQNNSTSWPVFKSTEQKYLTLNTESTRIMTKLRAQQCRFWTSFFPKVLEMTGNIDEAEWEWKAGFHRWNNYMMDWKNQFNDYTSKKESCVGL

For orientation: inhibition means the change of the read-out against control, counted positive when it falls. Broadly, the IC50 is the concentration that gives 50% inhibition. As for `CC(C)(C)NC[C@H](O)[C@H](Cc1ccccc1)NC(=O)C(c1ccccc1)c1ccccc1`, the inhibition in assay [1] was 20.5%; in [2] it was < 10%; against Cholinesterase [3] it was 35.5%; at Beta-secretase 1 [4], < 10%. The same molecule showed a 50% inhibitory concentration (IC50) against Cholinesterase [5] of 840 nM.

`C[C@H](NC[C@@H](O)[C@H](Cc1ccccc1)NCCC(c1ccccc1)c1ccccc1)c1ccccc1`: the inhibition in assay [1] is 34.7%; in [2], < 10%; against Cholinesterase [3] it was 72.5%; against Beta-secretase 1 [4] it was 62%. The molecule also had an IC50 on Cholinesterase [5] of 980 nM.

In the case of `COc1ccccc1CNC[C@H](O)[C@H](Cc1ccccc1)NCCC(c1ccccc1)c1ccccc1`, the inhibition in assay [1] was 34.7%; in assay [2] it was < 10%; against Beta-secretase 1 [4], 65.5%. Also, the IC50 on Cholinesterase [5] stood at 1010 nM; at Cholinesterase [6] it was 800 nM.

The molecule `CC(C)(C)c1cccc(CNCC(O)CNCCC(c2ccccc2)c2ccccc2)c1` (centres undefined) came in with an inhibition in [2] of 21.8%. Further, the figures for the IC50 against Cholinesterase [5], against Cholinesterase [6] and on Beta-secretase 1 [7] were 2920 nM, 5740 nM and 41600 nM, respectively.

As for `COc1cccc(CNC[C@@H](O)[C@H](Cc2ccccc2)NC(=O)CC(c2ccccc2)c2ccccc2)c1`, the inhibition was 20.5% in assay [1]; < 10% in assay [2]; 49% at Beta-secretase 1 [4]; 67% in [8]; 92% in [9]; 65% in [10]. Besides, the IC50 at GABA transporter 4 worked out at 5890 nM; on Cholinesterase [5], 1280 nM; on Cholinesterase [6] it was 440 nM.

For `COc1ccccc1CNC[C@H](O)[C@H](Cc1ccccc1)NC(=O)CC(c1ccccc1)c1ccccc1`, the inhibition was 20.5% in assay [1] and < 10% in assay [2]. Also, the figures for the IC50 against Cholinesterase [5], against Cholinesterase [6] and against Beta-secretase 1 [7] were 330 nM, 350 nM and 23400 nM, respectively.

With `CC(C)c1cccc(CNC[C@H](O)[C@H](Cc2ccccc2)NC(=O)C(c2ccccc2)c2ccccc2)c1`, the inhibition in [2] was < 10%; against Cholinesterase [3], 74.9%. Moreover, the results for the IC50 on Cholinesterase [5] and at Beta-secretase 1 [7] were 200 nM and 3400 nM, respectively.

Regarding `O[C@H](CNCc1ccccc1)[C@H](Cc1ccccc1)NCC(c1ccccc1)c1ccccc1`, the inhibition was < 10% in [2] and 42% at Beta-secretase 1 [4]. Also, the values for the IC50 against Cholinesterase [5] and on Cholinesterase [6] were 950 nM and 320 nM, respectively.

On to `CC(C)(C)NC[C@H](O)[C@H](Cc1ccccc1)NC(=O)CC(c1ccccc1)c1ccccc1`, for which the inhibition is 20.5% in assay [1], < 10% in assay [2], < 10% on Cholinesterase [3] and < 10% on Beta-secretase 1 [4]. Further, the IC50 on Cholinesterase [5] was found to be 11800 nM.

`CC(C)c1cccc(CNC[C@@H](O)[C@H](Cc2ccccc2)NCCC(c2ccccc2)c2ccccc2)c1`: the inhibition was 34.7% in assay [1], 25.9% in [2] and 67.4% against Cholinesterase [3]. The values for the IC50 on Cholinesterase [5] and against Beta-secretase 1 [7] were 1840 nM and 6600 nM, respectively.

In the case of `CC(C)(C)c1cccc(CNC[C@@H](O)[C@H](Cc2ccccc2)NC(=O)CC(c2ccccc2)c2ccccc2)c1`, the inhibition in [1] was 20.5%; in assay [2], < 10%; against Cholinesterase [3] it was 77.3%. The IC50 on Cholinesterase [5] worked out at 450 nM; on Beta-secretase 1 [7], 6000 nM.

For the molecule `CC(C)(C)CNC[C@@H](O)[C@H](Cc1ccccc1)NC(=O)CC(c1ccccc1)c1ccccc1`, the inhibition in [2] is < 10%; against Cholinesterase [3], 46.2%. In addition, the concentration for half-maximal inhibition (IC50) against Cholinesterase [5] amounted to 2770 nM; on Beta-secretase 1 [7], 33600 nM.

`COc1ccccc1CNC[C@H](O)[C@H](Cc1ccccc1)NCC(c1ccccc1)c1ccccc1`: the results for the inhibition (in assay [1]; in assay [2]; against Beta-secretase 1 [4]) were 81.4%, < 10% and 55.2%, respectively. Moreover, the results for the IC50 at Cholinesterase [5] and at Cholinesterase [6] were 320 nM and 580 nM, respectively.

As to `COc1ccccc1CNC[C@H](O)[C@H](Cc1ccccc1)NC(=O)C(c1ccccc1)c1ccccc1`, the inhibition is 20.5% in [1]; < 10% in assay [2]; 66.2% on Beta-secretase 1 [4]; 69% in [9]; 80% in [10]. The concentration for half-maximal inhibition (IC50) in [11] is 87100 nM; at GABA transporter 4 it was 20000 nM; at Cholinesterase [5] it was 110 nM; against Cholinesterase [6], 540 nM.

With `O=C(N[C@@H](Cc1ccccc1)[C@@H](O)CNCc1ccccc1)C(c1ccccc1)c1ccccc1`, the inhibition is < 10% in assay [2]; 40.5% on Cholinesterase [3]; 66.1% against Beta-secretase 1 [4]; 52% in assay [9]; 74% in [10]. For the same molecule, the figures for the IC50 (in assay [11]; on GABA transporter 4; against Cholinesterase [5]) were 34700 nM, 26900 nM and 230 nM, respectively.

Take `O=C(CC(c1ccccc1)c1ccccc1)N[C@@H](Cc1ccccc1)[C@H](O)CNCc1ccccc1`: the inhibition is 20.5% in [1], < 10% in assay [2] and 62.3% against Cholinesterase [3]. On Beta-secretase 1 [7], this molecule gave an IC50 of 35400 nM.

As for `O[C@H](CNCc1ccccc1)[C@H](Cc1ccccc1)NCCC(c1ccccc1)c1ccccc1`, the inhibition in assay [1] is 34.7%; in [2] it was < 10%; against Cholinesterase [3] it was 71.7%; against Beta-secretase 1 [4] it was 55.3%. Further, the IC50 against Cholinesterase [5] turned out to be 1540 nM.

Take `O=C(N[C@@H](Cc1ccccc1)[C@H](O)CNCc1ccccc1)C(c1ccccc1)c1ccccc1`: the inhibition was < 10% in assay [2], 34.1% against Cholinesterase [3] and 56.2% at Beta-secretase 1 [4]. Also, the IC50 against Cholinesterase [5] stood at 1510 nM.

For `C[C@H](NC[C@@H](O)[C@H](Cc1ccccc1)NCC(c1ccccc1)c1ccccc1)c1ccccc1`, the inhibition was 34.7% in [1], < 10% in assay [2] and 53.9% at Beta-secretase 1 [4]. Further, the IC50 at Cholinesterase [5] stood at 950 nM; against Cholinesterase [6], 920 nM.

On to `CC(C)(C)c1ccc(CNC[C@H](O)[C@H](Cc2ccccc2)NC(=O)C(c2ccccc2)c2ccccc2)cc1`, for which the inhibition was 20.5% in assay [1] and < 10% in [2]. Further, the IC50 stood at 3440 nM against Cholinesterase [5], 200 nM at Cholinesterase [6] and 2100 nM on Beta-secretase 1 [7].

On to `CC(C)(C)NC[C@H](O)[C@H](Cc1ccccc1)NCCC(c1ccccc1)c1ccccc1`, for which the inhibition is 34.7% in [1], < 10% in assay [2], 68.5% at Cholinesterase [3] and 51.3% at Beta-secretase 1 [4]. Moreover, on Cholinesterase [5], the IC50 is 190 nM.

On to `CC(C)(NC[C@@H](O)[C@H](Cc1ccccc1)NC(=O)CC(c1ccccc1)c1ccccc1)c1ccccc1`, for which the values for the inhibition (in assay [1]; in [2]; against Cholinesterase [3]) were 20.5%, < 10% and 13.3%, respectively. Moreover, the IC50 against Cholinesterase [5] is 3230 nM; against Beta-secretase 1 [7], 8900 nM.

`CC(C)(NC[C@@H](O)[C@H](Cc1ccccc1)NCCC(c1ccccc1)c1ccccc1)c1ccccc1`: the inhibition in assay [1] is 34.7%; in assay [2] it was < 10%; on Cholinesterase [3] it was 53.2%; against Beta-secretase 1 [4], 71.8%. Besides, the IC50 at Cholinesterase [5] amounted to 1600 nM.

On to `COc1cccc(CNC[C@@H](O)[C@H](Cc2ccccc2)NCCC(c2ccccc2)c2ccccc2)c1`, for which the inhibition in assay [1] was 34.7%; in assay [2], < 10%; at Cholinesterase [3] it was 55.4%; at Beta-secretase 1 [4], 50.6%. The same molecule showed an IC50 against Cholinesterase [5] of 2040 nM.

Take `O=C(N[C@@H](Cc1ccccc1)[C@@H](O)CNCc1cccc(C(F)(F)F)c1)C(c1ccccc1)c1ccccc1`: the inhibition in [2] is < 10%. Moreover, the IC50 against Cholinesterase [5] stood at 390 nM; against Cholinesterase [6], 670 nM; on Beta-secretase 1 [7], 8600 nM.
